“Also recorded” adds a separate entry of the source.
Biological target: HBHA110–199 (Mycobacterium tuberculosis, UniProt P9WIP9)
Assay: ITC binding of HS hexadecasaccharides with HBHA110–199
Settings: for dissociation constant, KD / Kd: Tris buffer pH 7.6, 25 °C, two trials, average ± standard deviation; for n (sugar-to-protein binding ratio) / ΔG / ΔH / –TΔS: 25 °C, Tris buffer pH 7.6; for Kd: read-out: dissociation constant, KD

Sequence of HBHA110–199 (P9WIP9 110-199): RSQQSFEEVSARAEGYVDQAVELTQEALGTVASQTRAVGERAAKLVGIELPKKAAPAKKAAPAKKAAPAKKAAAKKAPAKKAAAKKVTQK

## CC(=O)N[C@H]1[C@@H](O[C@H]2[C@H](O)[C@@H](O)[C@H]3OC[C@@H]2O3)O[C@H](COS(=O)(=O)O)[C@@H](O[C@@H]2O[C@@H](C(=O)O)[C@@H](O[C@H]3O[C@H](COS(=O)(=O)O)[C@@H](O[C@@H]4O[C@@H](C(=O)O)[C@@H](O[C@H]5O[C@H](COS(=O)(=O)O)[C@@H](O[C@@H]6O[C@@H](C(=O)O)[C@@H](O[C@H]7O[C@H](COS(=O)(=O)O)[C@@H](O[C@@H]8O[C@@H](C(=O)O)[C@@H](O[C@H]9O[C@H](COS(=O)(=O)O)[C@@H](O[C@@H]%10O[C@@H](C(=O)O)[C@@H](O[C@H]%11O[C@H](COS(=O)(=O)O)[C@@H](O[C@@H]%12O[C@@H](C(=O)O)[C@@H](O[C@H]%13O[C@H](COS(=O)(=O)O)[C@@H](O[C@@H]%14O[C@@H](C(=O)O)[C@@H](O[C@H]%15O[C@H](COS(=O)(=O)O)[C@@H](O)[C@H](O)[C@H]%15NC(C)=O)[C@H](O)[C@H]%14O)[C@H](O)[C@H]%13NC(C)=O)[C@H](O)[C@H]%12O)[C@H](O)[C@H]%11NC(C)=O)[C@H](O)[C@H]%10O)[C@H](O)[C@H]9NC(C)=O)[C@H](O)[C@H]8O)[C@H](O)[C@H]7NC(C)=O)[C@H](O)[C@H]6O)[C@H](O)[C@H]5NC(C)=O)[C@H](O)[C@H]4O)[C@H](O)[C@H]3NC(C)=O)[C@H](O)[C@H]2O)[C@@H]1O [compound 31]
  dissociation constant, KD: no detectable binding; also recorded: no binding detected

## O=C(O)[C@@H]1O[C@@H](O[C@H]2[C@H](O)[C@@H](NS(=O)(=O)O)[C@@H](O[C@H]3[C@H](O)[C@@H](O)[C@H]4OC[C@@H]3O4)O[C@@H]2CO)[C@H](O)[C@@H](O)[C@@H]1O[C@H]1O[C@H](CO)[C@@H](O[C@@H]2O[C@@H](C(=O)O)[C@@H](O[C@H]3O[C@H](CO)[C@@H](O[C@@H]4O[C@@H](C(=O)O)[C@@H](O[C@H]5O[C@H](CO)[C@@H](O[C@@H]6O[C@@H](C(=O)O)[C@@H](O[C@H]7O[C@H](CO)[C@@H](O[C@@H]8O[C@@H](C(=O)O)[C@@H](O[C@H]9O[C@H](CO)[C@@H](O[C@@H]%10O[C@@H](C(=O)O)[C@@H](O[C@H]%11O[C@H](CO)[C@@H](O[C@@H]%12O[C@@H](C(=O)O)[C@@H](O[C@H]%13O[C@H](CO)[C@@H](O)[C@H](O)[C@H]%13NS(=O)(=O)O)[C@H](O)[C@H]%12O)[C@H](O)[C@H]%11NS(=O)(=O)O)[C@H](O)[C@H]%10O)[C@H](O)[C@H]9NS(=O)(=O)O)[C@H](O)[C@H]8O)[C@H](O)[C@H]7NS(=O)(=O)O)[C@H](O)[C@H]6O)[C@H](O)[C@H]5NS(=O)(=O)O)[C@H](O)[C@H]4O)[C@H](O)[C@H]3NS(=O)(=O)O)[C@H](O)[C@H]2O)[C@H](O)[C@H]1NS(=O)(=O)O [compound 21]
  n (sugar-to-protein binding ratio): 0.23 ± 0.10
  ΔG: –6.55 ± 0.06 kcal/mol
  ΔH: 7.76 ± 4.02 kcal/mol
  –TΔS: –14.30 ± 3.96 kcal/mol
  Kd: 16 ± 1.5 µM

## O=C(O)[C@@H]1O[C@@H](O[C@H]2[C@H](O)[C@@H](NS(=O)(=O)O)[C@@H](O[C@H]3[C@H](O)[C@@H](OS(=O)(=O)O)[C@H]4OC[C@@H]3O4)O[C@@H]2CO)[C@H](OS(=O)(=O)O)[C@@H](O)[C@@H]1O[C@H]1O[C@H](CO)[C@@H](O[C@@H]2O[C@@H](C(=O)O)[C@@H](O[C@H]3O[C@H](CO)[C@@H](O[C@@H]4O[C@@H](C(=O)O)[C@@H](O[C@H]5O[C@H](CO)[C@@H](O[C@@H]6O[C@@H](C(=O)O)[C@@H](O[C@H]7O[C@H](CO)[C@@H](O[C@@H]8O[C@@H](C(=O)O)[C@@H](O[C@H]9O[C@H](CO)[C@@H](O[C@@H]%10O[C@@H](C(=O)O)[C@@H](O[C@H]%11O[C@H](CO)[C@@H](O[C@@H]%12O[C@@H](C(=O)O)[C@@H](O[C@H]%13O[C@H](CO)[C@@H](O)[C@H](O)[C@H]%13NS(=O)(=O)O)[C@H](O)[C@H]%12OS(=O)(=O)O)[C@H](O)[C@H]%11NS(=O)(=O)O)[C@H](O)[C@H]%10OS(=O)(=O)O)[C@H](O)[C@H]9NS(=O)(=O)O)[C@H](O)[C@H]8OS(=O)(=O)O)[C@H](O)[C@H]7NS(=O)(=O)O)[C@H](O)[C@H]6OS(=O)(=O)O)[C@H](O)[C@H]5NS(=O)(=O)O)[C@H](O)[C@H]4OS(=O)(=O)O)[C@H](O)[C@H]3NS(=O)(=O)O)[C@H](O)[C@H]2OS(=O)(=O)O)[C@H](O)[C@H]1NS(=O)(=O)O [compound 27]
  dissociation constant, KD: no detectable binding; also recorded: no binding detected

## CC(=O)N[C@H]1[C@@H](O[C@H]2[C@H](O)[C@@H](OS(=O)(=O)O)[C@H]3OC[C@@H]2O3)O[C@H](COS(=O)(=O)O)[C@@H](O[C@@H]2O[C@@H](C(=O)O)[C@@H](O[C@H]3O[C@H](COS(=O)(=O)O)[C@@H](O[C@@H]4O[C@@H](C(=O)O)[C@@H](O[C@H]5O[C@H](COS(=O)(=O)O)[C@@H](O[C@@H]6O[C@@H](C(=O)O)[C@@H](O[C@H]7O[C@H](COS(=O)(=O)O)[C@@H](O[C@@H]8O[C@@H](C(=O)O)[C@@H](O[C@H]9O[C@H](COS(=O)(=O)O)[C@@H](O[C@@H]%10O[C@@H](C(=O)O)[C@@H](O[C@H]%11O[C@H](COS(=O)(=O)O)[C@@H](O[C@@H]%12O[C@@H](C(=O)O)[C@@H](O[C@H]%13O[C@H](COS(=O)(=O)O)[C@@H](O[C@@H]%14O[C@@H](C(=O)O)[C@@H](O[C@H]%15O[C@H](COS(=O)(=O)O)[C@@H](O)[C@H](O)[C@H]%15NC(C)=O)[C@H](O)[C@H]%14OS(=O)(=O)O)[C@H](O)[C@H]%13NC(C)=O)[C@H](O)[C@H]%12OS(=O)(=O)O)[C@H](O)[C@H]%11NC(C)=O)[C@H](O)[C@H]%10OS(=O)(=O)O)[C@H](O)[C@H]9NC(C)=O)[C@H](O)[C@H]8OS(=O)(=O)O)[C@H](O)[C@H]7NC(C)=O)[C@H](O)[C@H]6OS(=O)(=O)O)[C@H](O)[C@H]5NC(C)=O)[C@H](O)[C@H]4OS(=O)(=O)O)[C@H](O)[C@H]3NC(C)=O)[C@H](O)[C@H]2OS(=O)(=O)O)[C@@H]1O [compound 23]
  n (sugar-to-protein binding ratio): 0.27 ± 0.01
  ΔG: –7.62 ± 0.02 kcal/mol
  ΔH: 15.00 ± 0.00 kcal/mol
  –TΔS: –22.60 ± 0.00 kcal/mol
  Kd: 2.63 ± 0.11 µM

Reference: publication PMC12814364 (Journal of the American Chemical Society, 2025)
